From ChEMBL document CHEMBL1201862, “PubChem BioAssay data set” (2004)
Calls of active or inactive are those of the source.

Legend:
[1] = off-target signal loss in HeLa-CEM21 co-culture – HeLa F-luc CTL cells, cherry-picked, counter-screen for HIV-1 Env fusion inhibitor project, dose response (AID 652040); format: functional, cell-based;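 further: potency for signal decrease marking cytotoxic or nonspecific inhibition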
[2] = blockers of HIV-1 envelope-mediated cell-cell fusion – cherry-pick, dose response (AID 652057); format: functional, cell-based
[3] = blockers of HIV-1 ZM109 envelope-driven cell-cell fusion – HeLa effector, CEM target cells, luciferase, cherry-pick, dose response (AID 652058); format: functional, cell-based;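 further: luciferase signal from HIV-1 Env mediated cell-cell fusion of effector and target cells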
H9c2 = assay: cells; format: functional, cell-based; details: Rattus norvegicus, H9c2, Myocardium;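 further: confirmatory concentration-response retest of ultra-high-throughput screening hits for modulation of myocardial damage; cell death induced by hydrogen peroxide oxidative stress; compound pretreatment for 60 min then peroxide exposure for 2 h; potency is for protecting the cells against peroxide damage rather than for killing them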
[4] = HIV-1 AD8 envelope cell-cell fusion blockers – cherry-pick, dose response (AID 652062); format: functional, cell-based;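 further: luciferase signal from cell-cell fusion driven by HIV-1 clade B AD8 Env; potency is for inhibitors of fusion seen as a drop in luminescence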
[5] = viability of PTEN-deleted HCT116 cells – cell-based, HCT116 PTEN knockout, dose response (AID 1047); format: functional;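 further: HCT116 colon tumor cells with PTEN knocked out; cells exposed to compound for 60 hours before readout; potency for loss of cell viability measured by luminescence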
Streptococcus = assay: GAS UMAA2166 growth inhibition – luminescence, BacTiterGlo, counter-screen for streptokinase expression inhibitor project, dose response (AID 1915); format: functional, organism-based;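 further: potency for reduction of bacterial viability or growth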
[6] = tested on: Streptococcus sp. 'group A'; assay: Streptococcus pyogenes SK(-)GAS viability under kanamycin – luminescence, BacTiterGlo, confirmation, counter-screen for streptokinase expression inhibitor project, dose response (AID 1900); format: functional, organism-based
INS1 = assay: INS-1E survival protection against cytokine death – cell-based, luminescence, retest, dose response (AID 449756); format: functional; details: Rattus norvegicus;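 further: cell death triggered by IL-1 beta plus TNF-alpha plus IFN-gamma mixture; protective hits raise ATP signal compared with cytokine alone wells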
[7] = viability of HCT116 lacking mutant beta-catenin – cell-based, human colon tumor, dose response (AID 1045); format: functional;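 further: HCT116 colon tumor cells with beta catenin knocked out; cells exposed to compound for 60 hours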
[8] = Luminescence Cell-Based Dose Retest to Confirm Inhibitors of Cancer Stem Cells. [Related pubchem assays (depositor defined):AID2717, AID2721]; format: functional; details: Homo sapiens
cells = format: functional, cell-based; details: HEK-CNG
Galanin receptor type 3 = molecular target: T1, Galanin receptor type 3 (Homo sapiens, UniProt O60755); assay: Fluorescence-based cell-based primary high throughput dose response assay to identify antagonists of the Galanin Receptor 3 (GalR3).; format: functional
T1 sequence (O60755 whole entry): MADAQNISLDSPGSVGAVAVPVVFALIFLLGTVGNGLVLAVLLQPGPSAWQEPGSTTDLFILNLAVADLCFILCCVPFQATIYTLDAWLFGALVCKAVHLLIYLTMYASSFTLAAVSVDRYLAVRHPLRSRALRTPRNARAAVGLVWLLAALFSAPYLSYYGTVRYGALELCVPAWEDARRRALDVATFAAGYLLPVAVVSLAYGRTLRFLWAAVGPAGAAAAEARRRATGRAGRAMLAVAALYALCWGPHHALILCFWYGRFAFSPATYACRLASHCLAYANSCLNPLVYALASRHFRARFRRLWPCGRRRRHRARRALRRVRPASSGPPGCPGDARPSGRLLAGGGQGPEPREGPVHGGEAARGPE

Prothrombin = Prothrombin (Homo sapiens, UniProt P00734); assay: Thrombin 1536 HTS Dose Response Confirmation. [Related pubchem assays: 1046 (Thrombin 1536 HTS; hits were confirmed in this assay)]; format: functional
[9] = viability loss in THP-1 monocytes – THP-1 cells, cytotoxicity control for Vif-APOBEC3G degradation inhibitor project, dose response (AID 1117359); format: functional; details: THP-1
[10] = molecular target: Voltage-dependent T-type calcium channel subunit alpha-1H (Homo sapiens, UniProt O95180); format: functional;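 further: channel activity triggered by adding a high calcium stimulation buffer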
Protein RecA = molecular target: T2, Protein RecA (Mycobacterium tuberculosis, UniProt P9WHJ3); assay: Fluorescence Cell-Free Homogeneous Dose Retest to Identify Inhibitors of RecA-Intein Splicing Activity. [Related pubchem assays (depositor defined):AID2097, AID2223, AID489010, AID492950]; format: functional
T2 sequence (P9WHJ3 whole entry): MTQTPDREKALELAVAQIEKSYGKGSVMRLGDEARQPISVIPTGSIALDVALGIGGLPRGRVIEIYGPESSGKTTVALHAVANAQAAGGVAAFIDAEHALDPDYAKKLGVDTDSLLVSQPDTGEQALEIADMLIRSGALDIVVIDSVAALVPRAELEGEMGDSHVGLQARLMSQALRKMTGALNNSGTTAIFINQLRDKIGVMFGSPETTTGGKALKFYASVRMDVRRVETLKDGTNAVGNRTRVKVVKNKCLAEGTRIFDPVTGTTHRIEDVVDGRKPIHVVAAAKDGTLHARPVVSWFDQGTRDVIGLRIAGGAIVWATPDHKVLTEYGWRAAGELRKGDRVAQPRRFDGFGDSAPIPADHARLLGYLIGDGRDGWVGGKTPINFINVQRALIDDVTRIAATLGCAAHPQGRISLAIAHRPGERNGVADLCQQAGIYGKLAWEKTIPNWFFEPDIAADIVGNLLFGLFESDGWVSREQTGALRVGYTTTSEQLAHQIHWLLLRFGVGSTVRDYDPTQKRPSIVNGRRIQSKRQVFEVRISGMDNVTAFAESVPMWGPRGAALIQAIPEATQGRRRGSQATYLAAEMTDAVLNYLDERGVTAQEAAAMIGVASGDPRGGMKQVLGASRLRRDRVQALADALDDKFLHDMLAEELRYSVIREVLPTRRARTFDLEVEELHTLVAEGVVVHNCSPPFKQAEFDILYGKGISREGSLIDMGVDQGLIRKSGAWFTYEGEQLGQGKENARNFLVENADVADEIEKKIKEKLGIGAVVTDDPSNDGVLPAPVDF

[11] = molecular target: T3, Replicative DNA helicase DnaB (Mycobacterium tuberculosis, UniProt P9WMR3); assay: DnaB intein splicing inhibitors, dose response, biochemical, cell-free fluorescence (AID 449749); format: functional
T3 sequence (P9WMR3 whole entry): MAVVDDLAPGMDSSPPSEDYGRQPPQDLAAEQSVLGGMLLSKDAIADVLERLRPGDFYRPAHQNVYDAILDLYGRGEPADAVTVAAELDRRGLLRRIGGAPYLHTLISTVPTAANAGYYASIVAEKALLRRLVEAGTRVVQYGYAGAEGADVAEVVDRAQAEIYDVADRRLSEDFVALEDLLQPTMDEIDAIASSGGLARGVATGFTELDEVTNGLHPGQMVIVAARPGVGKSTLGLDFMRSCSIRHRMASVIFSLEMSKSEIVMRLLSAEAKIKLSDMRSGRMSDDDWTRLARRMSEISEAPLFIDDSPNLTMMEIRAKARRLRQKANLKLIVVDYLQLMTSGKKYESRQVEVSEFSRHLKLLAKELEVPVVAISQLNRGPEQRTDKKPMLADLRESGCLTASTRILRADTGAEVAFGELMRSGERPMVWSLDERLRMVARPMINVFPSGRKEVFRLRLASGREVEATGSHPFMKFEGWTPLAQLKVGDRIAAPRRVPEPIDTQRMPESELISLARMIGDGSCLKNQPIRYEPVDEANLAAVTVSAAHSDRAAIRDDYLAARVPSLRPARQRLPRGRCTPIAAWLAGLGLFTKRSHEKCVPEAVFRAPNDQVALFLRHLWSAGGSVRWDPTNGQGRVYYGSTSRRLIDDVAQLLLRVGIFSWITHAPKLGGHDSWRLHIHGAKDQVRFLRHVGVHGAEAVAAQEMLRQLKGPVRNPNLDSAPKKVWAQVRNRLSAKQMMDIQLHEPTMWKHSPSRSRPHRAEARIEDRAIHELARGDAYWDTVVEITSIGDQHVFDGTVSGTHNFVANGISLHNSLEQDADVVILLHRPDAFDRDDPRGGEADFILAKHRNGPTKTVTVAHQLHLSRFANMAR

Cytochrome P450 2D6 = Cytochrome P450 2D6 (Homo sapiens, UniProt P10635);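 further: CYP2D6 member of a cytochrome P450 panel assay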
Cytochrome P450 1A2 = molecular target: T4, Cytochrome P450 1A2 (Homo sapiens, UniProt P05177);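 further: PubChem cytochrome P450 panel assay, CYP1A2 panel member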
T4 sequence (P05177 whole entry): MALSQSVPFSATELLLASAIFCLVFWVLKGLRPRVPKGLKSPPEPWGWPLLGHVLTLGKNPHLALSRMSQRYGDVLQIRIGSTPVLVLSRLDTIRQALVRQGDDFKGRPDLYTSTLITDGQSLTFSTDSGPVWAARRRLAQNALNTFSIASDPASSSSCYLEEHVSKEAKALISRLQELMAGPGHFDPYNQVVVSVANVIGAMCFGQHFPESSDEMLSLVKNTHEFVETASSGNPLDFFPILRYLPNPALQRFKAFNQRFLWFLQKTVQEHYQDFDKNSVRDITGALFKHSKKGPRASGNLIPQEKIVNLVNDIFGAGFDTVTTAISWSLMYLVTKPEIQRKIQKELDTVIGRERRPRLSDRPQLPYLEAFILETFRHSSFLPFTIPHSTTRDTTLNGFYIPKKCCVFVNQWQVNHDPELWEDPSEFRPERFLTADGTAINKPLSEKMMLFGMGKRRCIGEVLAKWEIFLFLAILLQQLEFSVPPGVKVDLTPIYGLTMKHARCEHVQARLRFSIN

[12] = NIH3T3 cell viability loss – ATP luminescence, mouse fibroblasts, counter-screen, dose response (AID 2010); format: functional, cell-based;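 further: cells exposed to compound for about 90 hours before reading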
[13] = Trypanosoma cruzi growth suppression in host cells – NIH3T3 host cells, beta-gal luminescence, confirmation (AID 2044); format: functional, cell-based;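 further: intracellular parasites grown in NIH/3T3 mouse fibroblasts as host cells; luminescent beta-galactosidase reporter signal from transgenic T. cruzi replicating inside host cells; inhibitors lower the luminescence signal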
[14] = HEK-293T viability loss after treatment – luminescence, T-cell screen hits, cytotoxicity control for TCR NF-kB inhibitor project, dose response (AID 489026); format: functional, cell-based;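 further: cells exposed to compound about 14 hours before the viability readout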

Sequence of Voltage-dependent T-type calcium channel subunit alpha-1H (O95180 whole entry): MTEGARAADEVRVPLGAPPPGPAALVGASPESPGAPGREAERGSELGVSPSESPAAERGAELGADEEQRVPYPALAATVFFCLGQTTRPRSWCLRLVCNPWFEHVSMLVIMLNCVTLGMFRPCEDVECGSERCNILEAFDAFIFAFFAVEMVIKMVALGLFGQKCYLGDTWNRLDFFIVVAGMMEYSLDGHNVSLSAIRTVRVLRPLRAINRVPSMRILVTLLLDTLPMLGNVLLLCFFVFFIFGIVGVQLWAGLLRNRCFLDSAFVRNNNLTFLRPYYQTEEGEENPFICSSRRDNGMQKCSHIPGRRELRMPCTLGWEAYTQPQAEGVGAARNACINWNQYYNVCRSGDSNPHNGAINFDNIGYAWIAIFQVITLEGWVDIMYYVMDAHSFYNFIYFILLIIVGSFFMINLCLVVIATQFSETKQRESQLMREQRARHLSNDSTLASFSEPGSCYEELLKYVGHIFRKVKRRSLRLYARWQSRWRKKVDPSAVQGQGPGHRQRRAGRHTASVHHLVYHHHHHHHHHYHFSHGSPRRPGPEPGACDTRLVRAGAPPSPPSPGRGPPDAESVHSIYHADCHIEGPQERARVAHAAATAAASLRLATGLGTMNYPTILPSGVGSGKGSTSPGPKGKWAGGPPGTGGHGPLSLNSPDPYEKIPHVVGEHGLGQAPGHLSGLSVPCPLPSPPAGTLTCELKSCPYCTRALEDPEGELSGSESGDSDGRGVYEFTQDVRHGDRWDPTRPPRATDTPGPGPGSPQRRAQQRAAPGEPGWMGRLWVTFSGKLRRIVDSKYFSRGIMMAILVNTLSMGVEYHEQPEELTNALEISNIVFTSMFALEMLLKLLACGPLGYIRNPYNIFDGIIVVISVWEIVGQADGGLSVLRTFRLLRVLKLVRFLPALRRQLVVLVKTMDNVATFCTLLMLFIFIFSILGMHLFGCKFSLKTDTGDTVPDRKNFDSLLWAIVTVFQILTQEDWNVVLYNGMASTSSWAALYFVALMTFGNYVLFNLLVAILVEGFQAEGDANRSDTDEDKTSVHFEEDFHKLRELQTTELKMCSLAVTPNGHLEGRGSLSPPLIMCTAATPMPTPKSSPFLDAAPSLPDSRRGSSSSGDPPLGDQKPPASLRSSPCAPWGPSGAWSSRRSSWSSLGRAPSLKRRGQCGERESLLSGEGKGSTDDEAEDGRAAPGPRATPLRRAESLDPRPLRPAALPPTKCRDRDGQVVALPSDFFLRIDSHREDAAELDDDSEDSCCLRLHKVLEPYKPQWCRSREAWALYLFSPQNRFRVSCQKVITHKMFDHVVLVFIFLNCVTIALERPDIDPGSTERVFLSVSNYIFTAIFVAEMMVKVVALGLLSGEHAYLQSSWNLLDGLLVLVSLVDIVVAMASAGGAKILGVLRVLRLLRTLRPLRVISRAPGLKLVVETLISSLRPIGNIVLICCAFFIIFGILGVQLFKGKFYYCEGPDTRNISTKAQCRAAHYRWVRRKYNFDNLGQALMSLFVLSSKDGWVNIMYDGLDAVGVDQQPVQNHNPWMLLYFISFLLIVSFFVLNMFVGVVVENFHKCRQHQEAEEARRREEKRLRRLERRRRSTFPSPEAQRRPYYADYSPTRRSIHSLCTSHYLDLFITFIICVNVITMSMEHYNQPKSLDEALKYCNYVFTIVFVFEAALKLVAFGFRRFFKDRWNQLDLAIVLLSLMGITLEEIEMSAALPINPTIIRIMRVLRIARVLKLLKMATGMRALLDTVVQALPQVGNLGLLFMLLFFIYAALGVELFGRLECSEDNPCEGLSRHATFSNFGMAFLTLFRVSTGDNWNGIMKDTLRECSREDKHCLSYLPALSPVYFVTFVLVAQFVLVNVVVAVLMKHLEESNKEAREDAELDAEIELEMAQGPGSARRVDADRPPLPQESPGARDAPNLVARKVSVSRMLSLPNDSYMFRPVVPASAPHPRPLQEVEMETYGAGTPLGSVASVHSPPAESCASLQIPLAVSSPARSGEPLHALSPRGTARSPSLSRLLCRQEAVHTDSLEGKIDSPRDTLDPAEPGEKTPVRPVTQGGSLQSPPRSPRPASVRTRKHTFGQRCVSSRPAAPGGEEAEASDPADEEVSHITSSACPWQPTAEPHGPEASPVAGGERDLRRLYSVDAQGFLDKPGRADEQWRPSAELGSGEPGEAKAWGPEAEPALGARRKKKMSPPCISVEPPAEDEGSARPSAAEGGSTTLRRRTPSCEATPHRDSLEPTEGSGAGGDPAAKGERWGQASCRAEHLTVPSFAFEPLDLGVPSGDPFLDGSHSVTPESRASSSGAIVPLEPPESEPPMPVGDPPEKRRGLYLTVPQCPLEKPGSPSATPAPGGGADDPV
Sequence of Cytochrome P450 2D6 (P10635 whole entry): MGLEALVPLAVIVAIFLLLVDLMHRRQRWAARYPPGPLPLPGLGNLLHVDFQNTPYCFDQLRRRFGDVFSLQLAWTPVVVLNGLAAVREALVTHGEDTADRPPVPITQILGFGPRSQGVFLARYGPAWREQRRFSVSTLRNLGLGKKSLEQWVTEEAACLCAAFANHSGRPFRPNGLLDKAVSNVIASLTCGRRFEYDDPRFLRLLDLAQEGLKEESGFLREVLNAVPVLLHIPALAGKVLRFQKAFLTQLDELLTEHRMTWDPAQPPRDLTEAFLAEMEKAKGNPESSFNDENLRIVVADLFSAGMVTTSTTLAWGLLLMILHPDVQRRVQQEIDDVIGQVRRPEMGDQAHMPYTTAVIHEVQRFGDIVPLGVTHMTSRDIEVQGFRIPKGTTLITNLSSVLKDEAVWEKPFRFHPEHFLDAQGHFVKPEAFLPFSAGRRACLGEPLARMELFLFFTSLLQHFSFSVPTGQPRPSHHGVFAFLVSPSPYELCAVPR

Compound: COc1ccc2nc(O)c(CN(Cc3nnnn3Cc3ccccc3)CC3CCCO3)cc2c1 (stereo not drawn)
- AC50 [1]: 7.73 µM (active)
- AC50 [2]: 4.18 µM (active)
- AC50 [3]: 5.31 µM (active)
- IC50 (H9c2): 16.5 µM (active)
- AC50 [4]: 33.1 µM (active)

Compound: Clc1ccc2c(N/N=C/c3cccc(Br)c3)ccnc2c1
- EC50 [5]: 4.59 µM (active)
- EC50 (Streptococcus): 4.4 µM (active)
- EC50 [6]: 3.24 µM (active)
- AC50 (INS1): 7.17 µM (active)
- EC50 [7]: 4.89 µM (active)
- AC50 [8]: 5.63 µM (active)

Compound: CN1CCN(c2ccc(CNS(=O)(=O)Cc3cccc(C(F)(F)F)c3)cc2)CC1
- EC50 (cells): > 29.9 µM (inactive)
- IC50 (Galanin receptor type 3): 2.08 µM (active)
- AC50 (INS1): 4.36 µM (active)

Compound: O=C(COC(=O)c1[nH]nc2ccccc12)NCCc1ccc(Cl)cc1
- EC50 (cells): > 29.9 µM (inactive)
- IC50 (Galanin receptor type 3): 2.87 µM (active)

Compound: Nc1nc2ccccc2n1C(=O)c1ccco1
- IC50 (Prothrombin): > 50 µM (not active)

Compound: COc1ccc(-c2nc(C#N)c(NCc3ccccc3Cl)o2)cc1OC
- EC50 [5]: 25.1 µM (active)
- CC50 [9]: > 40 µM (active)
- EC50 [7]: 29.1 µM (active)

Compound: Cc1ccc2[nH]c(SCCCCOc3ccccc3)nc2c1
- EC50 [10]: 2.25 µM (active)

Compound: COc1ccccc1NC(=O)c1sc2ncn(Cc3ccc(C)cc3)c(=O)c2c1C
- IC50 (Prothrombin): > 50 µM (not active)

Compound: COc1ccc(-c2ccc(CCC(=O)O)n2-c2ccccc2O)cc1
- IC50 (Prothrombin): 10.5 µM (active)

Compound: Cc1ccccc1NC(=O)c1ccc(CN2CCC(Cc3ccccc3)CC2)cc1
- EC50 [10]: 0.134 µM (active)

Compound: Cn1c(CNc2cccc(Cl)c2)nnc1SCC(=O)OC1CCCCC1
- EC50 [10]: 2.53 µM (active)

Compound: O=C(Nc1ccc(F)cc1F)c1ccc(-n2cncn2)nc1
- IC50 (Prothrombin): > 50 µM (not active)

Compound: COC(=O)c1ccc(C(=O)NC(=S)Nc2ccc3nc(SC)sc3c2)cc1
- EC50 [5]: 5.26 µM (active)
- EC50 [7]: 5.03 µM (active)

Compound: CC(=O)Oc1ccc2ccccc2c1C(NC(=O)Cc1ccccc1)c1ccc(Cl)cc1 (stereo not drawn)
- EC50 [5]: 18.6 µM (active)
- EC50 (Protein RecA): 31.6 µM (active)
- AC50 [11]: 3.27 µM (active)
- AC50 (Cytochrome P450 2D6): 11.2 µM (inconclusive)
- AC50 (Cytochrome P450 1A2): 6.31 µM (inconclusive)
- EC50 [7]: 21.1 µM (active)
- AC50 [8]: 3.12 µM (active)

Compound: O=C(O)C1CCN(c2ccc(Cl)nn2)CC1
- IC50 (Prothrombin): > 50 µM (not active)

Compound: Cc1c(-c2ccccc2)oc2c(C(=O)OCC(=O)Nc3ccc(C(N)=O)cc3)cccc2c1=O
- IC50 (H9c2): > 79 µM (inactive)

Compound: COc1ccc(C(=O)Nc2cc(C)nn2-c2nc3ccccc3[nH]2)c(OC)c1
- EC50 [12]: > 60 µM (not active)
- EC50 [13]: 2.51 µM (active)
- IC50 (H9c2): 7.52 µM (active)

Compound: CCOC(=O)C(C)Sc1cc(CS(=O)(=O)c2ccccc2)nc(-c2ccccc2)n1 (stereo not drawn)
- EC50 [10]: 8.17 µM (active)

Compound: O=C(Nc1nc(-c2cccs2)cs1)c1ccc(S(=O)(=O)N2CCCCC2)cc1
- EC50 [10]: 3.4 µM (active)

Compound: Cc1ccc2cc(C#N)c(N3CCN(C(=O)c4cccs4)CC3)nc2c1
- IC50 (H9c2): > 79 µM (inactive)

Compound: Cc1ccc(Oc2nnc(-c3ccccc3)c3ccccc23)cc1
- EC50 [5]: 75.7 µM (active)
- EC50 [7]: 75.9 µM (active)

Compound: CC(C)(C)c1ccc(C(=O)Nc2ccc(Oc3cccnc3)nc2)cc1
- EC50 (cells): > 29.9 µM (inactive)
- IC50 [14]: 50.1 µM (inactive)
- IC50 (Galanin receptor type 3): 1.33 µM (active)
